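Briefly, cells in 96-well plates were exposed to five compound concentrations for 48 h, and endpoints were estimated by linear interpolation. At the TGI there is no net growth.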
Assays:
Assay in all cases: NCI-60 cell line screen, 48 h
NCI-H23 lung = tested on: NCI-H23 lung
COLO 205 colon = tested on: COLO 205 colon
HL-60(TB) leukemia = tested on: HL-60(TB) leukemia
M14 melanoma = tested on: M14 melanoma
SW-620 colon = tested on: SW-620 colon
K-562 leukemia = tested on: K-562 leukemia
ACHN renal = tested on: ACHN renal
OVCAR-5 ovarian = tested on: OVCAR-5 ovarian
SR leukemia = tested on: SR leukemia
UACC-257 melanoma = tested on: UACC-257 melanoma
MOLT-4 leukemia = tested on: MOLT-4 leukemia
LOX IMVI melanoma = tested on: LOX IMVI melanoma
U251 CNS = tested on: U251 CNS
A498 renal = tested on: A498 renal
NCI/ADR-RES ovarian = tested on: NCI/ADR-RES ovarian
DU-145 prostate = tested on: DU-145 prostate
T-47D breast = tested on: T-47D breast

SMILES | TGI (NCI-H23 lung) [µM] | TGI (COLO 205 colon) [µM] | TGI (HL-60(TB) leukemia) [µM] | TGI (M14 melanoma) [µM] | TGI (SW-620 colon) [µM] | TGI (K-562 leukemia) [µM] | TGI (ACHN renal) [µM] | TGI (OVCAR-5 ovarian) [µM] | TGI (SR leukemia) [µM] | TGI (UACC-257 melanoma) [µM] | TGI (MOLT-4 leukemia) [µM] | TGI (LOX IMVI melanoma) [µM] | TGI (U251 CNS) [µM] | TGI (A498 renal) [µM] | TGI (NCI/ADR-RES ovarian) [µM] | TGI (DU-145 prostate) [µM] | TGI (T-47D breast) [µM]
Cc1nc(-n2nc(-c3ccccc3)cc2-c2ccccc2)sc1C(=O)/C=C/c1ccc(Cl)c(Cl)c1 | > 100 | > 100 | 36.7 | 40.5 | 57.3 | 63.7 | > 100 | 66.2 | 76.8 | > 100 | 52.5 | 27.5 | 23.8 | – | – | – | –
C[C@@H]1O[C@]2(O)[C@@H]3CCCN3S(=O)(=O)CCN2C1=O | > 100 | > 100 | > 100 | > 100 | > 100 | > 100 | > 100 | > 100 | > 100 | > 100 | > 100 | > 100 | > 100 | > 100 | – | – | –
CC(C)N(C(=O)C12C3C4C1C1C2C3C41I)C(C)C (configuration not stated) | > 100 | > 100 | > 100 | > 100 | > 100 | > 100 | > 100 | > 100 | > 100 | – | > 100 | – | – | > 100 | – | – | –
CC(C)CC(NP(=O)(O)OC1OC(C)C(O)C(O)C1O)C(=O)NC(Cc1c[nH]c2ccccc12)C(=O)O (configuration not stated) | > 100 | > 100 | – | > 100 | > 100 | > 100 | – | > 100 | – | > 100 | > 100 | – | > 100 | > 100 | > 100 | > 100 | > 100
CCN(CC)CC(=O)NC1c2ccccc2Oc2c(C)cccc21 (configuration not stated) | > 100 | > 100 | > 100 | > 100 | > 100 | > 100 | > 100 | > 100 | > 100 | > 100 | > 100 | > 100 | – | – | – | – | –
O=C(Cc1ccc([N+](=O)[O-])c([N+](=O)[O-])c1CC(=O)C(=O)Nc1cc(Cl)ccc1Cl)C(=O)Nc1cc(Cl)ccc1Cl | > 100 | 52.5 | > 100 | > 100 | > 100 | > 100 | > 100 | > 100 | > 100 | > 100 | > 100 | 65.9 | 70.1 | > 100 | – | – | –
CC12C(=C(C#N)C(=N)N1c1ccc(Cl)c(Cl)c1)C=C(O)CC2SCCS(=O)(=O)O (configuration not stated) | > 100 | > 100 | > 100 | – | > 100 | > 100 | > 100 | – | > 100 | > 100 | > 100 | > 100 | > 100 | > 100 | – | – | –
CCc1[nH]c(=O)c2oc3cc4ccccc4cc3c2c1C(=O)O | – | – | > 10 | > 10 | > 10 | – | > 10 | > 10 | > 10 | > 10 | – | > 10 | – | – | > 10 | > 10 | –
CC1(C)OCN(c2ccc(S(N)(=O)=O)cc2)Cn2c1nc1ccccc12 | > 100 | > 100 | > 100 | > 100 | > 100 | > 100 | > 100 | – | > 100 | > 100 | > 100 | > 100 | > 100 | > 100 | – | – | –
